{"source": "paper PMC6322304", "about": "“Phytohormone treatment induces generation of cryptic peptides with antimicrobial activity in the Moss Physcomitrella patens” (BMC Plant Biology, 2019)", "key": {"[1]": {"tested_on": "E. coli K-12 MG 1655", "assay_type": "cell-based, Escherichia coli", "conditions": "K-12, 20 h", "protocol": "(§1) A serial dilution method in sterile 96 Well Collection Plates (Corning 3870) in liquid MHB medium was used to define the minimum inhibitory concentration (MIC) of the peptides against E. coli K-12 MG 1655 and B. subtilis 168 HT as previously described. Diluted peptide (50 μL) in MHB medium was added to each well at the appropriate concentration (128 to 0.25 μg/mL), along with 50 μL of bacterial suspension at a concentration of 10^6 CFU/mL of microbial cells. The experiment was carried out in three replicates. Liquid MHB medium without the addition of the peptide used as a negative control. The plates were incubated at 37°С for 20 h without mixing. The MIC of the peptides was assessed visually and by measuring the spectrophotometric absorbance at 570 nm to identify the concentration that inhibited the visible growth of bacteria."}, "[2]": {"tested_on": "B. subtilis 168 HT", "assay_type": "cell-based, Bacillus subtilis", "conditions": "20 h", "protocol": "as §1"}, "[3]": {"tested_on": "E. coli and B. subtilis bacteria", "assay_type": "cell-based, Escherichia coli; Bacillus subtilis", "protocol": "as §1"}, "[4]": {"tested_on": "OPR3 gene", "assay": "qRT-PCR of pathogenesis-related gene in treated protonema", "assay_type": "cell-based, Physcomitrella patens", "conditions": "protonema incubated 1 h; MeJA 50 μM to 1 mM, SA 10 μM to 1 mM (Figure S8)", "protocol": "Protonemata of the moss P. patens subsp. patens (“Gransden 2004”, Freiburg) were grown in 200 mL liquid Knop medium with 500 mg/L ammonium tartrate under white light with a photon flux of 61 μmol/m^2•s under a 16-h photoperiod at 24°C. For mass spectrometry analysis, five-d-old protonema tissue was treated with 0.4 mM MeJA and incubated for 1 h. […] To analyze antimicrobial activity of secretome five-d-old- protonema tissue was treated with different concentration of MeJA. Treatment with cocktail of protease inhibitors was performed according to the dilution 1:200, as recommended by the manufacturer (P1860 Sigma Aldrich, USA). At least three independent biological replicates were used for each type of analysis. To test the gene expression induced by the peptides, five-d-old protonema tissue was treated with either mock solution or 1 μM peptide solution and harvested after 2, 4, 8 and 24 h later. […]\nTotal RNA from protonemata was isolated as previously described. Quality and quantity were evaluated using electrophoresis on agarose gel with ethidium bromide staining. Total RNA concentration of samples was precisely measured using the Quant-iT™ RNA Assay Kit, 5–100 ng on a Qubit 3.0 (Invitrogen, US) fluorometer. cDNA was synthesized using the MMLV RT kit (Evrogen, Russia) according to the manufacturer’s recommendations. […]"}}, "note": "Ends that are not written are not given here.", "data": [{"compound": "INIINAPLQGFKIA [INIINAPLQGFKIA]", "values": [{"measurement": "% inhibition, E. coli", "setting": "[1]", "result": ">90", "unit": "%"}, {"measurement": "MIC, E. coli", "setting": "[1]", "result": 16, "unit": "µg/mL"}, {"measurement": "% inhibition, B. subtilis", "setting": "[2]", "result": ">90", "unit": "%"}, {"measurement": "MIC, B. subtilis", "setting": "[2]", "result": 32, "unit": "µg/mL"}]}, {"compound": "LVQIGTKIVGVGRNYAAH [LVQIGTKIVGVGRNYAAH]", "values": [{"measurement": "% inhibition, E. coli", "setting": "[1]", "result": ">90", "unit": "%"}, {"measurement": "MIC, E. coli", "setting": "[1]", "result": 64, "unit": "µg/mL"}, {"measurement": "% inhibition, B. subtilis", "setting": "[2]", "result": ">90", "unit": "%"}, {"measurement": "MIC, B. subtilis", "setting": "[2]", "result": 64, "unit": "µg/mL"}, {"measurement": "minimum inhibitory concentration (MIC)", "setting": "[3]; bacterium not given, serial dilution with E. coli and B. subtilis", "result": 64, "unit": "µg/mL"}]}, {"compound": "CC/C=C\\CC1C(=O)CCC1CC(=O)OC", "note": "(centres unmarked) [MeJA, methyl jasmonate]", "values": [{"measurement": "response of OPR3 transcription to hormone treatment (qRT-PCR)", "setting": "[4]", "result": "clear response"}]}, {"compound": "KIKVAINGFGRIG [synthetic copy of a cellular moss peptide, fragment of glyceraldehyde-3-phosphate dehydrogenase (GAPDH)]", "values": [{"measurement": "concentration at which bacterial growth was inhibited", "setting": "[3]; on day 1 after inoculation, bacterium not named", "result": 128, "unit": "µg/mL"}]}]}
